# Test results taken from publication PMC8119889, “Computational Identification of a Putative Allosteric Binding Pocket in TMPRSS2” (Frontiers in Molecular Biosciences, 2021).
# Biological target: T1, TMPRSS2 (transmembrane serine protease 2) (Homo sapiens, UniProt O15393)
# T1 construct: Recombinant human TMPRSS2 (106-492aa, 6xHisTag)
# Test: microscale thermophoresis (His-tag RED-tris-NTA labelled protein, […])
# Format: binding
# T1 sequence (O15393 106-492): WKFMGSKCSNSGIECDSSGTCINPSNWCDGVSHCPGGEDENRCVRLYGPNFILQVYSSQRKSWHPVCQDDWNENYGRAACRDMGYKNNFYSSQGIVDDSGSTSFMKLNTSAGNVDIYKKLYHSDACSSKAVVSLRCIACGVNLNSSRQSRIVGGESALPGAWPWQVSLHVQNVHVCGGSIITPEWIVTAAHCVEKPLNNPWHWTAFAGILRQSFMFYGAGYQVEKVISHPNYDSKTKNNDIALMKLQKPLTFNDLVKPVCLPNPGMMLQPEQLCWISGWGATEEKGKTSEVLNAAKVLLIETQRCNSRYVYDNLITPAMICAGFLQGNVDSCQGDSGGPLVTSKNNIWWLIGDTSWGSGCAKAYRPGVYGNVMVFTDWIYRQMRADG
compound,measurement,value
"CN(Cc1cc(Br)cc(Br)c1N)C1CCCCC1 [BH, bromhexine]",Kd,24 ± 13 µM
